According to publication PMC9002265, “A New Series of Strigolactone Analogs Derived From Cinnamic Acids as Germination Inducers for Root Parasitic Plants” (Frontiers in Plant Science, 2022):

How the values were obtained:
[1] = Time course monitoring of degradation in hydroponic culture; assay type: physicochemical; details: 1 μM, within 1 week, pH 5.7, LC-MS/MS
Protocol: t-CASL1, c-CASL1, PPASL, and GR5 were separately added to 15 ml tubes containing hydroponic culture. The final concentration of the test compounds is 1 μM and acetone was adjusted to 0.01% (v/v). These solutions were incubated under the same conditions as branching assay. After incubation for 0, 5, 24 72, or 168 h, 495 μl of hydroponic culture containing test compounds was collected and 5 μl of NAA solution (10 μM) was added as an internal standard. The solution was extracted with ethyl acetate. The ethyl acetate phase was dried up under the nitrogen gas and dissolved in acetonitrile. These samples were subjected to LC–MS/MS analysis equipped with reverse-phase column (CORTECS UPLC Phenyl 1.6 μm, ϕ2.1 × 75 mm; Waters). Each peak area of test chemicals and internal standard was calculated, and the remaining percentage of teste chemicals was calculated. At the same time, the degradation products of test compounds (CA or PPA) were also analyzed. Detailed information about the analytical condition was described in Supplementary Table 1.

AtD14 = target: T1, AtD14 (Arabidopsis thaliana, UniProt Q9SQR3); assay: Hydrolysis assay with recombinant AtD14; assay type: biochemical; details: 10 μM substrate, 30°C, 60 min
T1 construct: The cDNA of AtD14 was introduced into pMALHis vector; MBP; His6; made in house; host or cells: E. coli BL21 (DE3)
T1 sequence (Q9SQR3 1-267): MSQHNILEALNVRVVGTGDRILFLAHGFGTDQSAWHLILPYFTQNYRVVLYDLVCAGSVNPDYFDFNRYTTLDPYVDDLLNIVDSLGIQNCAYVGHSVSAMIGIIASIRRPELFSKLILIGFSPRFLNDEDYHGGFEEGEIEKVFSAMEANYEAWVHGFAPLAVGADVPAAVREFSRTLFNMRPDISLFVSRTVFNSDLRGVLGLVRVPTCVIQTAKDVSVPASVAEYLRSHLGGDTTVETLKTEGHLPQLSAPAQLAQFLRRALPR
Protocol: The cDNA of AtD14 was introduced into pMALHis vector that has both MBP-tag and His6-tag. The vector was transformed in to E. coli BL21 (DE3) and the cell was precultured in LB medium containing 50 μg/ml ampicillin. Overnight cultures (10 ml) were added to fresh LB medium (1 L) containing 50 μg/ml ampicillin and it was cultured at 37°C. After OD600 reached to 0.8, the cultures were cooled at 16°C for 1 h, and then 0.1 mM IPTG was added. The culture was further incubated at 16°C for 20 h. The culture medium was centrifuged at 3,700 g and the pellet was stored at −20°C until use. The pellet was resuspended and sonicated in lysis buffer (50 mM Tris buffer (pH 8.0) containing 500 mM NaCl, 10 mM 2-mercaptoethanol, and 10% glycerol). The supernatant was purified by Ni Sepharose TM 6 Fast Flow (500 μl, Cytiva) After washing with the washing buffer (50 mM Tris buffer (pH 8.0) containing 500 mM NaCl and 20 mM imidazole), The bound protein was eluted with elution buffer (50 mM Tris buffer (pH 8.0) containing 500 mM NaCl and 200 mM imidazole). The eluate was concentrated using VIVASPIN Turbo 15 (Sartorius), and the concentration was adjusted to 5 mg/ml. The purified protein was aliquoted to the appropriate volume, immediately frozen in liquid nitrogen, and stored at −80°C until use.
Hydrolysis assays were carried out at 30°C for 60 min in 100 μl of a reaction buffer containing 0.13 pmol recombinant ShHTL7 or AtD14, 10 μM of substrate in 50 mM Phosphate-Na buffer (pH 7.0) containing 2% acetone. The enzyme reaction was stopped by addition of 100 μl of acetonitrile containing 1-naphtaleneacetic acid (NAA; 0.5 ng/μl) as an internal standard. After centrifuged at 13,000 rpm for 5 min, each sample was subjected to LC–MS/MS analysis equipped with reverse-phase column (CORTECS UPLC Phenyl 1.6 μm, ϕ2.1 × 75 mm; Waters). The concentration of remaining substrate and reaction product was calculated by using NAA as an internal standard. Detailed information about the analytical condition is described in Supplementary Table 1.

ShHTL6 = target: T2, ShHTL6 (Striga hermonthica, UniProt A0A0M4AUV4); assay: YLG assay (inhibition of YLG hydrolysis) with recombinant ShHTL6; assay type: biochemical
T2 sequence (A0A0M4AUV4 1-271): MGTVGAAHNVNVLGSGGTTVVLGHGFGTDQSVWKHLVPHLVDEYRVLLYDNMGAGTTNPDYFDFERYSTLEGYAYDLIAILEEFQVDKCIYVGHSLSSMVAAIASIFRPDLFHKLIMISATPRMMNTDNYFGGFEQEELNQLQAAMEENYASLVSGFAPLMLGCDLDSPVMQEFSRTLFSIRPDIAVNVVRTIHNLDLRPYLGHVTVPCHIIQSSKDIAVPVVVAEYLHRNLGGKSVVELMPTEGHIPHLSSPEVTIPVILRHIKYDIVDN
Protocol: The ORF fragment of ShHTL6 and ShHTL7 was synthesized using IDT gBlock service. The PCR amplified ShHTL6 and ShHTL7 fragment was digested with Nco I and EcoR I, and the digested product was introduced into a modified pET28 vector with an N-terminal His8 tag. Escherichia coli BL21(DE3) was used for protein expression. The overnight culture (12 ml) was added to a fresh LB medium (1.2 L) containing kanamycin (50 mg/L) at 37°C. After OD600 reached 0.8, 0.1 mM IPTG was added and the cell was further incubated at 16°C for 21 h. The culture medium was centrifuged at 3700 g and the pellet was stored at −20°C until use. The pellet was resuspended and sonicated in a lysis buffer (50 mM Tris buffer (pH 8.0) containing 500 mM NaCl, 10 mM 2-mercaptoethanol, and 10% glycerol). The supernatant was purified by Ni Sepharose TM 6 Fast Flow (500 μl, Cytiva). After washing with the washing buffer (50 mM Tris buffer (pH 8.0) containing 500 mM NaCl and 20 mM imidazole), The bound protein was eluted with elution buffer (50 mM Tris buffer (pH 8.0) containing 500 mM NaCl and 200 mM imidazole). The eluate was concentrated using VIVASPIN Turbo 15 (Sartorius), and the concentration was adjusted to 5 mg/ml. The purified protein was aliquoted to the appropriate volume, immediately frozen in liquid nitrogen, and stored at −80°C until use.
After YLG was incubated with recombinant ShHTL6 or ShHTL7 for 1 h, the fluorescence was measured by spectraMax i5 (Molecular Devices) at excitation by 480 nm and detection by 520 nm. IC50 values were calculated using the online tool Quest GraphTM IC50 Calculator (AAT Bioquest, Inc., United States; https://www.aatbio.com/tools/ ic50-calculator).

CC1=CC(OC(=O)/C=C\c2ccccc2)OC1=O (stereo not drawn) [c-CASL1]
loss (non-enzymatic degradation) in hydroponic culture medium [1]: ~40%
hydrolysis by AtD14 (AtD14): can hydrolyze
IC50 (ShHTL6): 900 nM
